The numbers were not newly measured in patent publication US8053446B2, “Cyanoguanidine compounds” (Leo Pharma A/S, priority 2004, dated 2011), which cites them from elsewhere.

For data set [1], the system named is normal human endothelial cells.
In another data set the test system is human tumour cells. Conditions: nude mice transplanted with human tumour cells; also against tumour cells resistant to conventional anticancer drugs such as paclitaxel.

As for `N#CNC(=Nc1ccncc1)NCCCCCCOc1ccc(Cl)cc1` [N-(6-(4-chlorophenoxy)hexyl)-N′-cyano-N″-(4-pyridyl)guanidine], the antiproliferative activity entry in data set [1] was “considerably less antiproliferative activity”. In the data set on human tumour cells, the antitumour activity entry is on record as “substantial antitumour activity”.
